Data: patent US20120301402A1, “RAP1A AS A MARKER FOR CARDIAC ARRHYTHMIA” (NATIONWIDE CHILDREN'S HOSPITAL, INC., priority 2011, published 2012)

How the values were obtained:
[1] = tested on: isolated ventricular myocytes; assay: After-contractions protocol in isolated ventricular myocytes; type: cell-based, mice; conditions: 5 s stimulation, counted 40 s after stimulation withdrawn
Experimental: FIG. 10 provides graphs showing that aftercontractions increase in heterozygous Rap1A myocytes. Further investigation of the spontaneous waves was performed using an “after-contractions” protocol by stimulating for 5 seconds and counting the number of after-contractions that occur 40 seconds after the stimulation is withdrawn. (A) Rap1A-heterozygous myocytes have increased after-contractions compared to control wild-type (WT) myocytes. (B) Inhibition of protein kinase C (PKC) by bisindolylmaleimide I (BIM, 1 μM) increases after-contractions in control wild-type (WT) and Rap1A-heterozygous myocytes. (C) Protein kinase C (PKC) activation by phorbol myristate acetate (PMA, 150 nM) leads to a decrease in after-contractions in Rap1A-heterozygous myocytes. (D) Summary data of WT/Rap1A-heterozygous+/− BIM (Inhibitor) and PMA (Activator). Both drugs were incubated in isolated ventricular myocytes before measurements were taken to activate or inhibit PKC.

[2] = tested on: isolated Rap1A-heterozygous cardiac myocytes; conditions: combination with isoproterenol, waves resumed after washout
Experimental: Ventricular myocytes were isolated from male C57BL/6 control wild-type (WT) and Rap1A-heterozygous (Rap1a^+/−) mice. Whole hearts were cannulated and hung on a Langendorff apparatus and tissue treated for enzymatic digestion for 3-5 minutes. The ventricles were minced and myocytes were dissociated by trituration. Subsequently, the myocytes were filtered, centrifuged, and used for the studies within 6 hours of isolation. Calcium transients were measured by loading isolated myocytes with fluo 4-AM (10 μM) for 30 min, followed by an additional 30 min for intracellular deesterification. Cell fluorescence was measured by epifluorescence. The intracellular calcium concentration [Ca^2+]i of single cells was measured with excitation at 480±20 nm and emission at 535±25 nm. Data were expressed as ΔF/F0, where F is the fluorescence intensity, and F0 is the intensity at rest. Myocytes were stimulated at 1 Hz. Simultaneous measurement of shortening was also performed using edge detection. Data were expressed as cell shortening (μm). Myocytes were analyzed from 2-3 independent isolations per group.
Myocytes were analyzed from 2-3 independent isolations per group.

## CN(C)CCCn1cc(C2=C(c3c[nH]c4ccccc34)C(=O)NC2=O)c2ccccc21 [bisindolylmaleimide I]
[1]; Rap1A-heterozygous myocytes, 1 μM
  After-contractions: increases
[1]; control wild-type (WT) myocytes, 1 μM
  After-contractions: increases

## Cc1cccc(C)c1OCC(C)N (stereo not shown) [Mexiletine]
[2]
  After-transients / spontaneous calcium waves: rescued

## CCCCCCCCCCCCCC(=O)O[C@@H]1[C@@H](C)[C@@]2(O)[C@@H](C=C(CO)C[C@]3(O)C(=O)C(C)=C[C@@H]23)[C@@H]2C(C)(C)[C@]12OC(C)=O [phorbol myristate acetate]
[1]; Rap1A-heterozygous myocytes, 150 nM
  After-contractions: decrease
